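Interpolation was linear, between the two tested concentrations surrounding the appropriate level; five concentrations were tested over 48 hours in 96-well plates. GI50: concentration for 50% inhibition of growth.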 The source made the active and inactive calls. No stated cut-off is given here; in the data, active = GI50 up to about 1.1 µM and inactive = higher.
Columns and labels:
Test in all cases: inhibition of tumour cell growth, NCI panel, 48 h
ACHN = system: ACHN
CCRF-CEM = system: CCRF-CEM
HCC 2998 = system: HCC 2998
HCT-116 = system: HCT-116
LXFL 529 = system: LXFL 529
M14 = system: M14
NCI-H460 = system: NCI-H460
NCI-H522 = system: NCI-H522
OVCAR-3 = system: OVCAR-3
OVCAR-4 = system: OVCAR-4
OVCAR-8 = system: OVCAR-8
RXF 393 = system: RXF 393
SK-OV-3 = system: SK-OV-3
SR = system: SR
TK-10 = system: TK-10
DU-145 = system: DU-145
Hs-578T = system: Hs-578T
MDA-MB-231 = system: MDA-MB-231
MDA-N = system: MDA-N

O=[N+]([O-])c1ccc(COc2cccc3cccnc23)cc1
GI50 (ACHN): 19.6 µM (inactive)
GI50 (CCRF-CEM): 3.94 µM (inactive)
GI50 (HCC 2998): 22.3 µM (inactive)
GI50 (HCT-116): 25.2 µM (inactive)
GI50 (LXFL 529): 23.5 µM (inactive)
GI50 (M14): 10.6 µM (inactive)
GI50 (NCI-H460): 1.23 µM (inactive)
GI50 (NCI-H522): 4.53 µM (inactive)
GI50 (OVCAR-3): 5.94 µM (inactive)
GI50 (OVCAR-4): 12.4 µM (inactive)
GI50 (OVCAR-8): 20.5 µM (inactive)
GI50 (RXF 393): 43.5 µM (inactive)
GI50 (SK-OV-3): 32.3 µM (inactive)
GI50 (SR): 3.47 µM (inactive)
GI50 (TK-10): 15.8 µM (inactive)

N=C(Nc1nc(-c2ccccn2)cc2ccccc12)c1ccccn1
GI50 (ACHN): < 0.0145 µM (active)
GI50 (CCRF-CEM): 0.01 µM (active)
GI50 (DU-145): 0.0673 µM (active)
GI50 (HCC 2998): 0.117 µM (active)
GI50 (HCT-116): 0.01 µM (active)
GI50 (Hs-578T): 1.61 µM (inactive)
GI50 (LXFL 529): 0.00242 µM (active)
GI50 (M14): 0.0229 µM (active)
GI50 (MDA-MB-231): < 0.0179 µM (active)
GI50 (MDA-N): 0.272 µM (active)
GI50 (NCI-H460): 0.0857 µM (active)
GI50 (NCI-H522): 0.0398 µM (active)
GI50 (OVCAR-3): 0.01 µM (active)
GI50 (OVCAR-4): < 0.0561 µM (active)
GI50 (OVCAR-8): < 0.0179 µM (active)
GI50 (RXF 393): 0.0168 µM (active)
GI50 (SK-OV-3): 0.0308 µM (active)
GI50 (TK-10): 0.249 µM (active)

Nc1nc(=O)[nH]c2c1cnn2C1CCCCO1 (stereo unspecified)
GI50 (ACHN): > 100 µM (inactive)
GI50 (CCRF-CEM): > 100 µM (inactive)
GI50 (HCC 2998): > 100 µM (inactive)
GI50 (HCT-116): > 100 µM (inactive)
GI50 (LXFL 529): > 100 µM (inactive)
GI50 (M14): > 100 µM (inactive)
GI50 (NCI-H460): > 100 µM (inactive)
GI50 (OVCAR-4): > 100 µM (inactive)
GI50 (OVCAR-8): > 100 µM (inactive)
GI50 (RXF 393): 56 µM (inactive)
GI50 (SR): 56 µM (inactive)
GI50 (TK-10): > 100 µM (inactive)

CCC(C)CN1C(=O)NC(Cc2ccccc2)C1=O (stereo unspecified)
GI50 (ACHN): > 100 µM (inactive)
GI50 (HCC 2998): > 100 µM (inactive)
GI50 (LXFL 529): > 100 µM (inactive)
GI50 (M14): > 100 µM (inactive)
GI50 (NCI-H460): > 100 µM (inactive)
GI50 (NCI-H522): > 100 µM (inactive)
GI50 (OVCAR-8): > 100 µM (inactive)
GI50 (RXF 393): > 100 µM (inactive)
GI50 (SR): > 100 µM (inactive)
GI50 (TK-10): > 100 µM (inactive)

CC(C)=CC(=O)Cc1nc2ccccc2[nH]c1=O
GI50 (ACHN): > 100 µM (inactive)
GI50 (CCRF-CEM): 64.7 µM (inactive)
GI50 (HCC 2998): > 100 µM (inactive)
GI50 (HCT-116): > 100 µM (inactive)
GI50 (LXFL 529): > 100 µM (inactive)
GI50 (M14): > 100 µM (inactive)
GI50 (NCI-H460): > 100 µM (inactive)
GI50 (OVCAR-3): > 100 µM (inactive)
GI50 (OVCAR-4): 52.2 µM (inactive)
GI50 (RXF 393): 18.4 µM (inactive)
GI50 (SK-OV-3): > 100 µM (inactive)
GI50 (SR): > 100 µM (inactive)
GI50 (TK-10): > 100 µM (inactive)

Nc1nc(N)c2nc(-c3ccco3)cnc2n1
GI50 (ACHN): 59.4 µM (inactive)
GI50 (CCRF-CEM): 43.1 µM (inactive)
GI50 (HCC 2998): > 100 µM (inactive)
GI50 (HCT-116): 34.4 µM (inactive)
GI50 (LXFL 529): 64.1 µM (inactive)
GI50 (M14): 50 µM (inactive)
GI50 (NCI-H460): 35.3 µM (inactive)
GI50 (NCI-H522): 50.2 µM (inactive)
GI50 (OVCAR-3): 56.9 µM (inactive)
GI50 (OVCAR-8): > 100 µM (inactive)
GI50 (RXF 393): 26.2 µM (inactive)
GI50 (SK-OV-3): 76.9 µM (inactive)
GI50 (SR): 39.9 µM (inactive)
GI50 (TK-10): 88.1 µM (inactive)

O=C(O)[C@@H](NS(=O)(=O)c1ccc(F)cc1)c1ccccc1
GI50 (ACHN): > 100 µM (inactive)
GI50 (CCRF-CEM): > 100 µM (inactive)
GI50 (HCC 2998): > 100 µM (inactive)
GI50 (HCT-116): > 100 µM (inactive)
GI50 (LXFL 529): > 100 µM (inactive)
GI50 (M14): > 100 µM (inactive)
GI50 (NCI-H460): > 100 µM (inactive)
GI50 (NCI-H522): > 100 µM (inactive)
GI50 (OVCAR-3): > 100 µM (inactive)
GI50 (OVCAR-4): > 100 µM (inactive)
GI50 (OVCAR-8): > 100 µM (inactive)
GI50 (RXF 393): > 100 µM (inactive)
GI50 (SK-OV-3): > 100 µM (inactive)
GI50 (TK-10): > 100 µM (inactive)

C=CCc1cc(OC)c2c(c1)C(OC(C)=O)CC(c1ccc(OC)c(OC)c1)O2 (stereo unspecified)
GI50 (ACHN): > 100 µM (inactive)
GI50 (CCRF-CEM): > 100 µM (inactive)
GI50 (HCC 2998): > 100 µM (inactive)
GI50 (HCT-116): > 100 µM (inactive)
GI50 (LXFL 529): > 100 µM (inactive)
GI50 (M14): > 100 µM (inactive)
GI50 (NCI-H460): > 100 µM (inactive)
GI50 (NCI-H522): > 100 µM (inactive)
GI50 (OVCAR-3): > 100 µM (inactive)
GI50 (OVCAR-4): > 100 µM (inactive)
GI50 (SK-OV-3): > 100 µM (inactive)
GI50 (SR): > 100 µM (inactive)
GI50 (TK-10): 63.1 µM (inactive)

C=C(N=[N+]=[N-])c1cn(C2CC(O)C(CO)O2)c(=O)[nH]c1=O (stereo unspecified)
GI50 (ACHN): > 100 µM (inactive)
GI50 (CCRF-CEM): > 100 µM (inactive)
GI50 (HCC 2998): > 100 µM (inactive)
GI50 (HCT-116): > 100 µM (inactive)
GI50 (LXFL 529): > 100 µM (inactive)
GI50 (M14): > 100 µM (inactive)
GI50 (NCI-H460): > 100 µM (inactive)
GI50 (NCI-H522): > 100 µM (inactive)
GI50 (OVCAR-3): > 100 µM (inactive)
GI50 (OVCAR-8): > 100 µM (inactive)
GI50 (RXF 393): > 100 µM (inactive)
GI50 (SK-OV-3): > 100 µM (inactive)
GI50 (SR): > 100 µM (inactive)
GI50 (TK-10): > 100 µM (inactive)

Cc1c(/C=N/N(C)C)oc2c1cc(O)c1ncccc12
GI50 (ACHN): 7.89 µM (inactive)
GI50 (CCRF-CEM): 1.27 µM (inactive)
GI50 (HCC 2998): 14 µM (inactive)
GI50 (HCT-116): 2.99 µM (inactive)
GI50 (LXFL 529): 7.98 µM (inactive)
GI50 (M14): 3.25 µM (inactive)
GI50 (NCI-H460): 4.5 µM (inactive)
GI50 (NCI-H522): 2.38 µM (inactive)
GI50 (OVCAR-3): 2.66 µM (inactive)
GI50 (OVCAR-4): 4.75 µM (inactive)
GI50 (OVCAR-8): 4.07 µM (inactive)
GI50 (RXF 393): 5.97 µM (inactive)
GI50 (SK-OV-3): 6.87 µM (inactive)
GI50 (SR): 2.77 µM (inactive)
GI50 (TK-10): 28.8 µM (inactive)

COc1ccc(Cc2c3cc(OC)c(OC)cc3cc[n+]2C)cc1
GI50 (ACHN): > 29.2 µM (inactive)
GI50 (HCC 2998): > 25.2 µM (inactive)
GI50 (HCT-116): 15 µM (inactive)
GI50 (LXFL 529): 3.18 µM (inactive)
GI50 (M14): > 21.7 µM (inactive)
GI50 (NCI-H522): 19.9 µM (inactive)
GI50 (OVCAR-3): 7.28 µM (inactive)
GI50 (OVCAR-4): 19.8 µM (inactive)
GI50 (OVCAR-8): 6.85 µM (inactive)
GI50 (RXF 393): > 25.6 µM (inactive)
GI50 (SR): 2.2 µM (inactive)
GI50 (TK-10): > 52.5 µM (inactive)

Nc1nc(SCc2ccccc2Cl)c2[nH]cnc2n1
GI50 (ACHN): 31.5 µM (inactive)
GI50 (CCRF-CEM): 54.5 µM (inactive)
GI50 (HCC 2998): > 100 µM (inactive)
GI50 (HCT-116): 59.8 µM (inactive)
GI50 (LXFL 529): 62.1 µM (inactive)
GI50 (M14): > 100 µM (inactive)
GI50 (NCI-H460): 48.9 µM (inactive)
GI50 (NCI-H522): 56.4 µM (inactive)
GI50 (OVCAR-3): 97.7 µM (inactive)
GI50 (OVCAR-8): 55.7 µM (inactive)
GI50 (RXF 393): 23.1 µM (inactive)
GI50 (SK-OV-3): 24.7 µM (inactive)
GI50 (SR): 64.9 µM (inactive)
GI50 (TK-10): 18.8 µM (inactive)

CCOC(=O)C(=O)NCCCN1CCOCC1
GI50 (ACHN): > 100 µM (inactive)
GI50 (CCRF-CEM): > 100 µM (inactive)
GI50 (HCC 2998): > 100 µM (inactive)
GI50 (HCT-116): > 100 µM (inactive)
GI50 (LXFL 529): > 100 µM (inactive)
GI50 (M14): > 100 µM (inactive)
GI50 (NCI-H460): > 100 µM (inactive)
GI50 (NCI-H522): > 100 µM (inactive)
GI50 (OVCAR-3): > 100 µM (inactive)
GI50 (OVCAR-4): > 100 µM (inactive)
GI50 (OVCAR-8): > 100 µM (inactive)
GI50 (RXF 393): > 100 µM (inactive)
GI50 (SK-OV-3): > 100 µM (inactive)
GI50 (TK-10): > 100 µM (inactive)

COc1ccc(/C=C/c2cc(OC)c(OCc3ccccc3)c(OC)c2)cc1
GI50 (ACHN): > 100 µM (inactive)
GI50 (CCRF-CEM): > 100 µM (inactive)
GI50 (HCC 2998): > 100 µM (inactive)
GI50 (HCT-116): > 100 µM (inactive)
GI50 (LXFL 529): > 100 µM (inactive)
GI50 (M14): 87.5 µM (inactive)
GI50 (NCI-H460): > 100 µM (inactive)
GI50 (NCI-H522): > 100 µM (inactive)
GI50 (OVCAR-3): > 100 µM (inactive)
GI50 (OVCAR-4): 23.6 µM (inactive)
GI50 (OVCAR-8): > 100 µM (inactive)
GI50 (SK-OV-3): > 100 µM (inactive)
GI50 (SR): 26.4 µM (inactive)
